Assay results published in ChEMBL document CHEMBL5050844 (2019).

Legend:
[1] = Induction of anti-CD3 antibodies-stimulated human CD8+ T cell activation at 10 uM assessed fold increase in cell proliferation measured by flow cytometry analysis; format: functional, T cell line; also: reference of the scale not given here
[2] = Induction of anti-CD3/CD28 antibodies-stimulated human T cell activation at 4 uM assessed fold increase in IL-2 secretion measured by ELISA assay; format: functional, T cell line
B cell = test: Induction of anti-IgM-stimulated human CD20+ B cell activation at 10 to 1000 uM assessed as increase in CD69 expression measured as mean fluorescence intensity AUC by flow cytometry analysis; format: functional, cell-based; conditions: dose 10-1000 µM
[3] = Induction of anti-CD3 antibodies-stimulated human T cell activation at 1.11 uM assessed fold increase in IFN-gamma secretion measured by ELISA assay; format: functional, T cell line; also: reference of the scale not given here
[4] = Induction of anti-CD3/CD28 antibodies-stimulated human T cell activation at 0.3 uM assessed fold increase in CD25 expression measured by ELISA assay; format: functional, T cell line
[5] = Induction of anti-CD3 antibodies-stimulated human T cell activation at 8 uM assessed fold increase in IL-2 secretion measured by ELISA assay; format: functional, T cell line; also: reference of the scale not given here
[6] = Induction of anti-CD3 antibodies-stimulated human T cell activation at 1 uM assessed fold increase in CD25 expression measured by ELISA assay; format: functional, T cell line; also: reference of the scale not given here
[7] = Induction of activation of human CD56+ CD3- NK cells co-cultured with human K562 cells in 1:1 ratio and assessed as increase in TNF-alpha secretion at 0.625 uM measured by ELISA assay; format: functional, Natural killer cell
[8] = Induction of anti-CD3 antibodies-stimulated human T cell activation at 10 uM assessed fold increase in IFN-gamma secretion measured by ELISA assay; format: functional, T cell line; also: reference of the scale not given here
[9] = Induction of anti-CD3 antibodies-stimulated human exhausted CD8+ T cell activation assessed fold increase in CTLA4 expression measured by flow cytometry analysis; format: functional, T cell line; also: reference of the scale not given here
[10] = Induction of anti-CD3 antibodies-stimulated human T cell activation at 1.11 uM assessed fold increase in TNF-alpha secretion measured by ELISA assay; format: functional, T cell line; also: reference of the scale not given here
[11] = Induction of anti-CD3/CD28 antibodies-stimulated human CD8+ T cell activation at 10 uM assessed fold increase in cell proliferation measured by flow cytometry analysis; format: functional, T cell line
[12] = Induction of anti-CD3/CD28 antibodies-stimulated human anergic T cell activation at 0.37 uM assessed fold increase in IFN-gamma secretion measured by ELISA assay; format: functional, T cell line
[13] = Induction of anti-CD3/CD28 antibodies-stimulated human T cell activation at 1.11 uM assessed fold increase in IFN-gamma secretion measured by ELISA assay; format: functional, T cell line
[14] = Induction of anti-CD3/CD28 antibodies-stimulated human T cell activation at 10 uM assessed fold increase in IFN-gamma secretion measured by ELISA assay; format: functional, T cell line
[15] = Induction of anti-CD3 antibodies-stimulated human T cell activation at 8 uM assessed fold increase in CD25 expression measured by ELISA assay; format: functional, T cell line; also: reference of the scale not given here
[16] = Induction of anti-CD3/CD28 antibodies-stimulated human CD8+ T cell activation at 1.11 uM assessed fold increase in CD69 expression measured by flow cytometry analysis; format: functional, T cell line
[17] = Induction of anti-CD3 antibodies-stimulated human CD4+ T cell activation at 1.11 uM assessed fold increase in CD69 expression measured by flow cytometry analysis; format: functional, T cell line; also: reference of the scale not given here
[18] = Induction of anti-CD3/CD28 antibodies-stimulated human anergic T cell activation at 1.11 uM assessed fold increase in IFN-gamma secretion measured by ELISA assay; format: functional, T cell line
[19] = Induction of anti-CD3/CD28 antibodies-stimulated human CD4+ T cell activation at 1.11 uM assessed fold increase in CD69 expression measured by flow cytometry analysis; format: functional, T cell line
[20] = Induction of allogenic human T cell activation at 10 uM assessed fold increase in cell proliferation; format: functional, T cell line
[21] = Induction of anti-CD3/CD28 antibodies-stimulated human CD4+ T cell activation at 10 uM assessed fold increase in cell proliferation measured by flow cytometry analysis; format: functional, T cell line
[22] = Induction of anti-CD3/CD28 antibodies-stimulated human T cell activation at 10 uM assessed fold increase in TNF-alpha secretion measured by ELISA assay; format: functional, T cell line
[23] = Induction of anti-CD3 antibodies-stimulated human T cell activation at 1.11 uM assessed fold increase in GM-CSF secretion measured by ELISA assay; format: functional, T cell line; also: reference of the scale not given here
[24] = Induction of anti-CD3 antibodies-stimulated human exhausted T cell activation assessed fold increase in IL-2 secretion measured by ELISA assay; format: functional, T cell line; also: reference of the scale not given here
[25] = Induction of anti-CD3 antibodies-stimulated human T cell activation at 1 uM assessed fold increase in IL-2 secretion measured by ELISA assay; format: functional, T cell line; also: reference of the scale not given here
[26] = Induction of anti-CD3 antibodies-stimulated human CD8+ T cell activation at 10 uM assessed fold increase in CD69 expression measured by flow cytometry analysis; format: functional, T cell line; also: reference of the scale not given here
[27] = Induction of anti-CD3/CD28 antibodies-stimulated human CD8+ T cell activation at 1.11 uM assessed fold increase in cell proliferation measured by flow cytometry analysis; format: functional, T cell line
[28] = Induction of anti-CD3 antibodies-stimulated human CD8+ T cell activation at 1.11 uM assessed fold increase in CD69 expression measured by flow cytometry analysis; format: functional, T cell line; also: reference of the scale not given here
[29] = Induction of activation of human CD56+ CD3- NK cells co-cultured with human K562 cells in 1:1 ratio and assessed as increase in IFN-gamma secretion at 10 uM measured by ELISA assay; format: functional, Natural killer cell
[30] = Induction of activation of human CD56+ CD3- NK cells co-cultured with human K562 cells in 1:1 ratio and assessed as increase in IFN-gamma secretion at 2.5 uM measured by ELISA assay; format: functional, Natural killer cell
[31] = Induction of anti-CD3 antibodies-stimulated human T cell activation at 10 uM assessed fold increase in GM-CSF secretion measured by ELISA assay; format: functional, T cell line; also: reference of the scale not given here
[32] = Induction of anti-CD3/CD28 antibodies-stimulated human CD4+ T cell activation at 10 uM assessed fold increase in CD69 expression measured by flow cytometry analysis; format: functional, T cell line
[33] = Induction of activation of human CD56+ CD3- NK cells co-cultured with human K562 cells in 1:1 ratio and assessed as increase in TNF-alpha secretion at 10 uM measured by ELISA assay; format: functional, Natural killer cell
[34] = Induction of anti-CD3/CD28 antibodies-stimulated human anergic T cell activation at 10 uM assessed fold increase in IFN-gamma secretion measured by ELISA assay; format: functional, T cell line
[35] = Induction of anti-CD3/CD28 antibodies-stimulated human CD4+ T cell activation at 1.11 uM assessed fold increase in cell proliferation measured by flow cytometry analysis; format: functional, T cell line
[36] = Induction of activation of human CD56+ CD3- NK cells co-cultured with human K562 cells in 1:1 ratio and assessed as increase in TNF-alpha secretion at 2.5 uM measured by ELISA assay; format: functional, Natural killer cell
[37] = Induction of anti-CD3 antibodies-stimulated human CD4+ T cell activation at 10 uM assessed fold increase in CD69 expression measured by flow cytometry analysis; format: functional, T cell line; also: reference of the scale not given here

Compound	fold change (FC) [1]	fold change (FC) [2]	AUC (B cell)	fold change (FC) [3]	fold change (FC) [4]	fold change (FC) [5]	fold change (FC) [6]	fold change (FC) [7]	fold change (FC) [8]	fold change (FC) [9]	fold change (FC) [10]	fold change (FC) [11]	fold change (FC) [12]	fold change (FC) [13]	fold change (FC) [14]	fold change (FC) [15]	fold change (FC) [16]	fold change (FC) [17]	fold change (FC) [18]	fold change (FC) [19]	further results
C[C@H](Cc1nncn1C)c1cccc(N2Cc3c(cc(CN4CC[C@H](F)C4)cc3C(F)(F)F)C2=O)c1	>4	>=7.5	1.01	3.01	1.01	>=0.201	>=1.001	2.01	>4	>1.61	2.01	>4	>4.01	>4	>4	>=1.001	1.201	>1.601	>4.01	>1.601	fold change (FC) [20]: >3; fold change (FC) [21]: >4; fold change (FC) [22]: 2.01; fold change (FC) [23]: 2.01; fold change (FC) [24]: >3.01; fold change (FC) [25]: 0.151; fold change (FC) [26]: 1.401; fold change (FC) [27]: >4; fold change (FC) [28]: 1.401; fold change (FC) [29]: >=5; fold change (FC) [30]: >=5; fold change (FC) [31]: >4; fold change (FC) [32]: >1.601; fold change (FC) [33]: 2.01; fold change (FC) [34]: >4.01; fold change (FC) [35]: >4; fold change (FC) [36]: >=5; fold change (FC) [37]: >1.601
Cc1cc(C(=O)Nc2cccc([C@@H](C)Cc3nncn3C)c2)nc(C2CC2)n1	>4	2.51	1.01	<=2	1.01	0.101	0.801	<=1	<=2	<=1.4	<=1.5	>4	<=2.5	3.01	>4	>=1.001	1.201	1.401	<=2.5	1.401	fold change (FC) [20]: <=2; fold change (FC) [21]: >4; fold change (FC) [22]: 2.01; fold change (FC) [23]: <=1.5; fold change (FC) [24]: <=2.5; fold change (FC) [25]: 0.051; fold change (FC) [26]: 1.201; fold change (FC) [27]: 2.01; fold change (FC) [28]: <=1.2; fold change (FC) [29]: 2.01; fold change (FC) [30]: 1.01; fold change (FC) [31]: 1.51; fold change (FC) [32]: 1.401; fold change (FC) [33]: 1.01; fold change (FC) [34]: <=2.5; fold change (FC) [35]: >4; fold change (FC) [36]: <=1; fold change (FC) [37]: >1.601
Cn1cnnc1CC1(c2cccc(N3Cc4c(cc(CN5CC[C@H](C#N)C5)cc4C(F)(F)F)C3=O)c2)COC1	>4	>=7.5	1.01	<=2	1.31	>=0.201	>=1.001	1.01	3.01	>1.61	<=1.5	3.01	<=2.5	3.01	>4	>=1.001	1.201	1.401	2.51	1.201	fold change (FC) [20]: 2.01; fold change (FC) [21]: >4; fold change (FC) [22]: 2.01; fold change (FC) [23]: 2.01; fold change (FC) [24]: <=2.5; fold change (FC) [25]: >=0.201; fold change (FC) [26]: 1.201; fold change (FC) [27]: 2.01; fold change (FC) [28]: <=1.2; fold change (FC) [29]: 2.01; fold change (FC) [30]: 1.01; fold change (FC) [31]: 2.01; fold change (FC) [32]: 1.401; fold change (FC) [33]: 2.01; fold change (FC) [34]: 2.51; fold change (FC) [35]: >4; fold change (FC) [36]: 1.01; fold change (FC) [37]: >1.601
Cn1cnnc1C(F)(F)C(C)(F)c1cccc(N2Cc3c(cc(CN4CC[C@@H](F)C4)cc3C(F)(F)F)C2=O)c1 (single isomer, unassigned)	>4	>=7.5	1.01	<=2	1.31	>=0.201	>=1.001	1.01	<=2	>1.61	1.51	>4	2.51	2.01	>4	>=1.001	1.201	1.401	2.51	1.201	fold change (FC) [20]: 2.01; fold change (FC) [21]: >4; fold change (FC) [22]: 2.01; fold change (FC) [23]: 1.51; fold change (FC) [24]: >3.01; fold change (FC) [25]: >=0.201; fold change (FC) [26]: 1.401; fold change (FC) [27]: 2.01; fold change (FC) [28]: 1.201; fold change (FC) [29]: >=5; fold change (FC) [30]: 2.01; fold change (FC) [31]: 2.01; fold change (FC) [32]: 1.401; fold change (FC) [33]: >=5; fold change (FC) [34]: >4.01; fold change (FC) [35]: >4; fold change (FC) [36]: 2.01; fold change (FC) [37]: >1.601
